Laboratory results from US12589158B2 (priority 2022, dated 2026).

test: Pharmacokinetics in cynomolgus monkeys; conditions: cynomolgus monkey, in vivo, sc, 25 nmol/kg
Description: After subcutaneous or intravenous administration to cynomolgus monkeys, plasma is collected and the drug concentration in plasma is determined to illustrate the in vivo pharmacokinetic properties of the compound according to the present invention. The compound is dissolved in 1.4% PG in 8 mM Na2HPO4 Buffer (pH 7.39), and filtered through a filter membrane (PTFE, 0.45 μm) to obtain 25 and 12.5 nmol/mL solution of the compound respectively. The obtained solutions are administered to cynomolgus monkeys (4-8 kg) at a dose of 25 nmol/kg subcutaneously (s.c.) or 12.5 nmol/kg intravenously (i.v.). […] The blood samples are centrifuged at 2200 g for 10 minutes to obtain a plasma, which is stored at −90° C. to −60° C. for further analysis and assay.
70.0 μL of thawed plasma sample is taken. 70 μL of acetonitrile (containing 1 ng/ml of the internal standard) is added to precipitate protein. The mixture is vortexed for 1 minute, and centrifuged at 14000 rpm for 10 minutes. 60.0 μL of the supernatant is taken, into which 60.0 μL of 0.5% aqueous formic acid solution is added. The mixture is vortexed for 5 minutes. 10 μL of the mixture solution is sampled and injected into the LC-MS/MS to determine the drug concentration in plasma.
Based on the drug concentration in plasma of the compounds in the cynomolgus monkeys, the pharmacokinetic parameters are calculated by applying the software Winnolin 8.2 in a non-compartmental model, and the results are shown in Table 9 and Table 10 below.

Row | Compound | MRT inf [h] | MRT last [h]
1 | CC[C@H](C)[C@H](NC(=O)C(C)(C)NC(=O)[C@H](Cc1ccc(O)cc1)NC(=O)[C@H](CC(=O)O)NC(=O)[C@H](CO)NC(=O)[C@@H](NC(=O)C(C)(Cc1ccccc1)NC(=O)[C@@H](NC(=O)CNC(=O)[C@H](CCC(=O)O)NC(=O)C(C)(C)NC(=O)[C@@H](N)Cc1ccc(O)cc1)[C@@H](C)O)[C@@H](C)O)C(=O)NC(C)(C)C(=O)N[C@@H](CC(C)C)C(=O)N[C@@H](CC(=O)O)C(=O)N[C@@H](CCCCN)C(=O)N[C@@H](CCC(N)=O)C(=O)N[C@@H](C)C(=O)N[C@@H](CCC(N)=O)C(=O)N[C@@H](C)C(=O)N[C@@H](CCC(=O)O)C(=O)N[C@@H](Cc1ccccc1)C(=O)N[C@H](C(=O)N[C@@H](CCCCN)C(=O)N[C@@H](Cc1c[nH]c2ccccc12)C(=O)N[C@@H](CC(C)C)C(=O)N[C@@H](CC(C)C)C(=O)N[C@@H](CCCCNC(=O)COCCOCCNC(=O)COCCOCCNC(=O)CC[C@H](NC(=O)CCCCCCCCCCCCCCCCCCCCC(=O)O)C(=O)O)C(=O)NCC(=O)NCC(=O)N1CCC[C@H]1C(=O)N[C@@H](CO)C(=O)N[C@@H](CO)C(=O)NCC(=O)N[C@@H](C)C(=O)N1CCC[C@H]1C(=O)N1CCC[C@H]1C(=O)N1CCC[C@H]1C(=O)N[C@@H](CO)C(=O)N[C@@H](CCCCN)C(N)=O)C(C)C (some centres unmarked) [P017] | 77.8 ± 12.2 | 76.4 ± 12.7

test: Pharmacokinetics following single administration in SD rat; parameters: species or system SD rats; conditions: in vivo, sc, 50 nmol/kg
Description: The compound is administrated to male SD rats (230-268 g, n=3) at a dose of 50.0 nmol/kg (s.c.) or 25.0 nmol/kg (i.v.). […] 30.0 μL of thawed plasma sample is taken. 150 μL of acetonitrile solution (containing 5 ng mL^−1 Verapamil, 50 ng·mL^−1 Glibenclamide, 200 ng·mL^−1 Tolbutamide and 200 ng·mL^−1 Diclofenac) are added to precipitate protein. The mixture is vortexed for 5 minutes, and centrifuged at 3700 rpm for 8 minutes. 70.0 μL of the supernatant is taken, into which 70.0 μL of 0.5% aqueous formic acid solution is added. The mixture is vortexed for 5 minutes. 15 μL of the mixture solution is sampled and injected into the LC-MS/MS to determine the drug concentration in plasma. 20.0 μL of thawed plasma sample is taken. 60 μL of acetonitrile solution (containing 5 ng mL^−1 Verapamil, 50 ng·mL^−1 Glibenclamide, 200 ng·mL^−1 Tolbutamide and 200 ng·mL^−1 Diclofenac) are added to precipitate protein. […] The mixture is vortexed for 10 minutes. 10.0 μL of the mixture solution is sampled and injected into the LC-MS/MS to determine the drug concentration in plasma. 30.0 μL of thawed plasma sample is taken. 150 μL of acetonitrile solution (containing 5 ng mL^−1 Verapamil, 50 ng mL^−1 Glibenclamide, 200 ng·mL^−1 Tolbutamide and 200 ng·mL^−1 Diclofenac) are added to precipitate protein. The mixture is vortexed for 5 minutes, and centrifuged at 3700 rpm for 8 minutes. 70.0 μL of the supernatant is taken, into which 70.0 μL of 0.5% aqueous formic acid solution is added. The mixture is vortexed for 5 minutes. 10.0 μL of the mixture solution is sampled and injected into the LC-MS/MS to determine the drug concentration in plasma.

Row | Compound | MRT inf [h] | MRT last [h]
2 | CC[C@H](C)[C@H](NC(=O)C(C)(C)NC(=O)[C@H](Cc1ccc(O)cc1)NC(=O)[C@H](CC(=O)O)NC(=O)[C@H](CO)NC(=O)[C@@H](NC(=O)C(C)(Cc1ccccc1)NC(=O)[C@@H](NC(=O)CNC(=O)[C@H](CCC(=O)O)NC(=O)C(C)(C)NC(=O)[C@@H](N)Cc1ccc(O)cc1)[C@@H](C)O)[C@@H](C)O)C(=O)NC(C)(C)C(=O)N[C@@H](CC(C)C)C(=O)N[C@@H](CC(=O)O)C(=O)N[C@@H](CCCCN)C(=O)N[C@@H](CCC(N)=O)C(=O)N[C@@H](C)C(=O)N[C@@H](CCC(N)=O)C(=O)N[C@@H](C)C(=O)N[C@@H](CCC(=O)O)C(=O)N[C@@H](Cc1ccccc1)C(=O)N[C@H](C(=O)N[C@@H](CCCCNC(=O)COCCOCCNC(=O)COCCOCCNC(=O)CC[C@H](NC(=O)CCCCCCCCCCCCCCCCC(=O)O)C(=O)O)C(=O)N[C@@H](Cc1c[nH]c2ccccc12)C(=O)N[C@@H](CC(C)C)C(=O)N[C@@H](CC(C)C)C(=O)N[C@@H](CCCCN)C(=O)NCC(=O)NCC(=O)N1CCC[C@H]1C(=O)N[C@@H](CO)C(=O)N[C@@H](CO)C(=O)NCC(=O)N[C@@H](C)C(=O)N1CCC[C@H]1C(=O)N1CCC[C@H]1C(=O)N1CCC[C@H]1C(=O)N[C@@H](CO)C(=O)N[C@@H](CCCCN)C(N)=O)C(C)C (some centres unmarked) [P007] | 25.7 ± 1.69 | 21.4 ± 1.87
3 | CC[C@H](C)[C@H](NC(=O)C(C)(C)NC(=O)[C@H](Cc1ccc(O)cc1)NC(=O)[C@H](CC(=O)O)NC(=O)[C@H](CO)NC(=O)[C@@H](NC(=O)C(C)(Cc1ccccc1)NC(=O)[C@@H](NC(=O)CNC(=O)[C@H](CCC(=O)O)NC(=O)C(C)(C)NC(=O)[C@@H](N)Cc1ccc(O)cc1)[C@@H](C)O)[C@@H](C)O)C(=O)NC(C)(C)C(=O)N[C@@H](CC(C)C)C(=O)N[C@@H](CC(=O)O)C(=O)N[C@@H](CCCCN)C(=O)N[C@@H](CCC(N)=O)C(=O)N[C@@H](C)C(=O)N[C@@H](CCC(N)=O)C(=O)N[C@@H](C)C(=O)N[C@@H](CCC(=O)O)C(=O)N[C@@H](Cc1ccccc1)C(=O)N[C@H](C(=O)N[C@@H](CCCCN)C(=O)N[C@@H](Cc1c[nH]c2ccccc12)C(=O)N[C@@H](CC(C)C)C(=O)N[C@@H](CC(C)C)C(=O)N[C@@H](CCCCNC(=O)COCCOCCNC(=O)COCCOCCNC(=O)CC[C@H](NC(=O)CCCCCCCCCCCCCCCCC(=O)O)C(=O)O)C(=O)NCC(=O)NCC(=O)N1CCC[C@H]1C(=O)N[C@@H](CO)C(=O)N[C@@H](CO)C(=O)NCC(=O)N[C@@H](C)C(=O)N1CCC[C@H]1C(=O)N1CCC[C@H]1C(=O)N1CCC[C@H]1C(=O)N[C@@H](CO)C(=O)N[C@@H](CCCCN)C(N)=O)C(C)C (some centres unmarked) [P008] | 25.4 | 21 ± 1.85
4 | CC[C@H](C)[C@H](NC(=O)C(C)(C)NC(=O)[C@H](Cc1ccc(O)cc1)NC(=O)[C@H](CC(=O)O)NC(=O)[C@H](CO)NC(=O)[C@@H](NC(=O)C(C)(Cc1ccccc1)NC(=O)[C@@H](NC(=O)CNC(=O)[C@H](CCC(=O)O)NC(=O)C(C)(C)NC(=O)[C@@H](N)Cc1ccc(O)cc1)[C@@H](C)O)[C@@H](C)O)C(=O)NC(C)(C)C(=O)N[C@@H](CC(C)C)C(=O)N[C@@H](CC(=O)O)C(=O)N[C@@H](CCCCN)C(=O)N[C@@H](CCC(N)=O)C(=O)N[C@@H](C)C(=O)N[C@@H](CCC(N)=O)C(=O)N[C@@H](C)C(=O)N[C@@H](CCC(=O)O)C(=O)N[C@@H](Cc1ccccc1)C(=O)N[C@H](C(=O)N[C@@H](CCCCNC(=O)COCCOCCNC(=O)COCCOCCNC(=O)CC[C@H](NC(=O)CCCCCCCCCCCCCCCCCCC(=O)O)C(=O)O)C(=O)N[C@@H](Cc1c[nH]c2ccccc12)C(=O)N[C@@H](CC(C)C)C(=O)N[C@@H](CC(C)C)C(=O)N[C@@H](CCCCN)C(=O)NCC(=O)NCC(=O)N1CCC[C@H]1C(=O)N[C@@H](CO)C(=O)N[C@@H](CO)C(=O)NCC(=O)N[C@@H](C)C(=O)N1CCC[C@H]1C(=O)N1CCC[C@H]1C(=O)N1CCC[C@H]1C(=O)N[C@@H](CO)C(=O)N[C@@H](CCCCN)C(N)=O)C(C)C (some centres unmarked) [P013] | 29.9 ± 1.33 | 26.2 ± 0.7
5 | CC[C@H](C)[C@H](NC(=O)C(C)(C)NC(=O)[C@H](Cc1ccc(O)cc1)NC(=O)[C@H](CC(=O)O)NC(=O)[C@H](CO)NC(=O)[C@@H](NC(=O)C(C)(Cc1ccccc1)NC(=O)[C@@H](NC(=O)CNC(=O)[C@H](CCC(=O)O)NC(=O)C(C)(C)NC(=O)[C@@H](N)Cc1ccc(O)cc1)[C@@H](C)O)[C@@H](C)O)C(=O)NC(C)(C)C(=O)N[C@@H](CC(C)C)C(=O)N[C@@H](CC(=O)O)C(=O)N[C@@H](CCCCN)C(=O)N[C@@H](CCC(N)=O)C(=O)N[C@@H](C)C(=O)N[C@@H](CCC(N)=O)C(=O)N[C@@H](C)C(=O)N[C@@H](CCC(=O)O)C(=O)N[C@@H](Cc1ccccc1)C(=O)N[C@H](C(=O)N[C@@H](CCCCN)C(=O)N[C@@H](Cc1c[nH]c2ccccc12)C(=O)N[C@@H](CC(C)C)C(=O)N[C@@H](CC(C)C)C(=O)N[C@@H](CCCCNC(=O)COCCOCCNC(=O)COCCOCCNC(=O)CC[C@H](NC(=O)CCCCCCCCCCCCCCCCCCCCC(=O)O)C(=O)O)C(=O)NCC(=O)NCC(=O)N1CCC[C@H]1C(=O)N[C@@H](CO)C(=O)N[C@@H](CO)C(=O)NCC(=O)N[C@@H](C)C(=O)N1CCC[C@H]1C(=O)N1CCC[C@H]1C(=O)N1CCC[C@H]1C(=O)N[C@@H](CO)C(=O)N[C@@H](CCCCN)C(N)=O)C(C)C (some centres unmarked) [P017] | 36.9 ± 3.46 | 27.9 ± 2.99
6 | CC[C@H](C)[C@H](NC(=O)C(C)(C)NC(=O)[C@H](Cc1ccc(O)cc1)NC(=O)[C@H](CC(=O)O)NC(=O)[C@H](CO)NC(=O)[C@@H](NC(=O)C(C)(Cc1ccccc1)NC(=O)[C@@H](NC(=O)CNC(=O)[C@H](CCC(=O)O)NC(=O)C(C)(C)NC(=O)[C@@H](N)Cc1ccc(O)cc1)[C@@H](C)O)[C@@H](C)O)C(=O)NC(C)(C)C(=O)N[C@@H](CC(C)C)C(=O)N[C@@H](CC(=O)O)C(=O)N[C@@H](CCCCN)C(=O)N[C@@H](CCC(N)=O)C(=O)N[C@@H](C)C(=O)N[C@@H](CCC(N)=O)C(=O)N[C@@H](C)C(=O)N[C@@H](CCC(=O)O)C(=O)N[C@@H](Cc1ccccc1)C(=O)N[C@H](C(=O)N[C@@H](CCCCN)C(=O)N[C@@H](Cc1c[nH]c2ccccc12)C(=O)N[C@@H](CC(C)C)C(=O)N[C@@H](CC(C)C)C(=O)N[C@@H](CCCCNC(=O)COCCOCCNC(=O)COCCOCCNC(=O)CC[C@H](NC(=O)CC[C@H](NC(=O)CC[C@H](NC(=O)CCCCCCCCCCCCCCCCC(=O)O)C(=O)O)C(=O)O)C(=O)O)C(=O)NCC(=O)NCC(=O)N1CCC[C@H]1C(=O)N[C@@H](CO)C(=O)N[C@@H](CO)C(=O)NCC(=O)N[C@@H](C)C(=O)N1CCC[C@H]1C(=O)N1CCC[C@H]1C(=O)N1CCC[C@H]1C(=O)N[C@@H](CO)C(=O)N[C@@H](CCCCN)C(N)=O)C(C)C (some centres unmarked) [P018] | 33.4 ± 7 | 28.5 ± 4.45
7 | CC[C@H](C)[C@H](NC(=O)C(C)(C)NC(=O)[C@H](Cc1ccc(O)cc1)NC(=O)[C@H](CC(=O)O)NC(=O)[C@H](CO)NC(=O)[C@@H](NC(=O)C(C)(Cc1ccccc1)NC(=O)[C@@H](NC(=O)CNC(=O)[C@H](CCC(=O)O)NC(=O)C(C)(C)NC(=O)[C@@H](N)Cc1ccc(O)cc1)[C@@H](C)O)[C@@H](C)O)C(=O)NC(C)(C)C(=O)N[C@@H](CC(C)C)C(=O)N[C@@H](CC(=O)O)C(=O)N[C@@H](CCCCN)C(=O)N[C@@H](CCC(N)=O)C(=O)N[C@@H](C)C(=O)N[C@@H](CCC(N)=O)C(=O)N[C@@H](C)C(=O)N[C@@H](CCC(=O)O)C(=O)N[C@@H](Cc1ccccc1)C(=O)N[C@H](C(=O)N[C@@H](CCCCN)C(=O)N[C@@H](Cc1c[nH]c2ccccc12)C(=O)N[C@@H](CC(C)C)C(=O)N[C@@H](CC(C)C)C(=O)N[C@@H](CCCCNC(=O)COCCOCCNC(=O)COCCOCCNC(=O)COCCOCCNC(=O)CC[C@H](NC(=O)CCCCCCCCCCCCCCCCC(=O)O)C(=O)O)C(=O)NCC(=O)NCC(=O)N1CCC[C@H]1C(=O)N[C@@H](CO)C(=O)N[C@@H](CO)C(=O)NCC(=O)N[C@@H](C)C(=O)N1CCC[C@H]1C(=O)N1CCC[C@H]1C(=O)N1CCC[C@H]1C(=O)N[C@@H](CO)C(=O)N[C@@H](CCCCN)C(N)=O)C(C)C (some centres unmarked) [P019] | 18.3 ± 2.76 | 17.1 ± 2.55
